{"source": "paper PMC5381078", "about": "“Carboxylate derivatives of tributyltin (IV) complexes as anticancer and antileishmanial agents” (DARU Journal of Pharmaceutical Sciences, 2017)", "key": {"THP-1 cell line": {"tested_on": "THP-1 cell line", "experiment": "Cytotoxicity against THP-1 cell line (MTT assay)", "assay_type": "cell-based, human", "details": "20 μg/mL, 72 h", "protocol": "Cytotoxicity of tributyltin (IV) compounds against THP-1 cell line was determined by 3-(4,5-dimethylthiazol-2-yl)-2,5-diphenyl tetrazolium bromide (MTT) assay. THP-1 cells were cultured in complete growth medium comprising RPMI-1640 (pH 7.4) supplemented with 2.2 g/L NaHCO3 and 10% v/v heat inactivated fetal bovine serum (HIFBS). An aliquot of 20 μL of samples in 1% DMSO in PBS and 180 μL of THP-1 cells were mixed in 96-well plate. Cells were added at an assay density of 1 × 10^4 cells/mL whereas sample/standard was added to achieve the final concentration of 20 μg/mL. The plate was incubated at 37 °C for 72 h in humidified 5% carbon dioxide incubator (Panasonic, Japan MCO-18 AC-PE). Vincristine and 1% DMSO in PBS were used as positive and negative controls respectively. After incubation, 20 μL of pre-filter sterilized MTT solution (4 mg/mL in distilled water) was added in plates and incubated for 4 h at 37 °C in CO2 incubator. Later, colored formazan crystals were separated by removing supernatant and dissolved in 100 μL of DMSO. Reaction was allowed to stand for 1 h to ensure complete dissolution and absorbance was measured at 540 nm using microplate reader (Biotech USA, Elx 800)."}, "[1]": {"tested_on": "promastigotes of Leishmania tropica kwh 23", "experiment": "Antileishmanial activity (MTT assay)", "assay_type": "cell-based", "details": "72 h; for Antileishmanial % growth inhibition (mortality, lethality): 20 μg/mL; for Antileishmanial LC50: MTT", "protocol": "Antileishmanial activity against the promastigotes of Leishmania tropica kwh 23 was evaluated by a quantitative colorimetric assay using 3-(4,5-dimethylthiazol-2-yl)-2, 5-diphenyl tetrazolium bromide (MTT) with minor modifications. […] […] Negative control wells contained 1% DMSO in PBS. All samples were run in triplicate. Afterwards, plates were incubated for 4 h at 24 °C with 20 μL of MTT (4 mg/mL in distilled water) to determine the cell viability. Supernatant from each well was carefully removed leaving behind formazan crystals. Colored formazan crystals were dissolved in 100 μL of DMSO by setting those aside for 1 h to ensure complete dissolution. Cell viability was estimated by measuring absorbance at 540 nm using microplate reader and percentage growth inhibition was calculated."}, "[2]": {"tested_on": "Leishmania tropica kwh 23 promastigotes", "experiment": "Photosensitizing effect against leishmania", "assay_type": "cell-based", "details": "for Photosensitizing effect % growth inhibition, Sunlight with IR filter: 15 min; for Photosensitizing effect % growth inhibition, Sunlight: 15 min sunlight", "protocol": "Photosensitizing effect of tributyltin (IV) compounds was determined in three parallel groups. Samples and controls were exposed for 15 min to sunlight (168 W/m^2 of sun intensity) or sunlight with IR filter or dark conditions. The relative intensity of sunlight was measured by a CCD spectrometer (Ocean Optics, model HR4000). Later, plates were incubated at 25 °C for 72 h and cell viability was determined by MTT assay as given above. In this assay, samples were tested at concentrations showing less than 55% inhibition in primary antileishmanial assay to exclude false positive."}, "[3]": {"tested_on": "Leishmania tropica kwh 23 promastigotes", "experiment": "ROS mediated antileishmanial activity (NaN3 / mannitol scavengers)", "assay_type": "cell-based", "details": "for Reduction of antileishmanial activity in the presence of NaN3: NaN3 0.1 mM; for Reduction of antileishmanial activity in the presence of mannitol: mannitol 1 mM", "protocol": "Leishmania tropica kwh 23 promastigotes were treated in three groups. First group was exposed to samples along with 0.1 mM sodium azide (NaN3), second group to samples with 1 mM mannitol and third group comprised of all controls. In third group, promastigotes were treated in different wells with samples only (sample control), 1% DMSO in PBS only (negative control-I), amphotericin B only (positive control), 0.1 mM NaN3 only (negative control-II) and 1 mM mannitol only (negative control-III). Plates were incubated followed by MTT assay described above."}, "isolated lymphocytes": {"tested_on": "isolated lymphocytes", "experiment": "Cytotoxicity against isolated lymphocytes (MTT assay)", "assay_type": "cell-based, human", "details": "24 h", "protocol": "Lymphocytes were isolated using previously described protocol with some modifications. Informed consent was obtained from volunteers and procedure was conducted according to international ethical guidelines after gaining approval from the ethical committee of the Quaid-i-Azam University. A volume of 3 mL of blood was obtained from a healthy donor by venipuncture and diluted (1:1) with PBS. It was layered over 2 mL Histopaque-1077 and centrifuged at 800 × g for 20 min. The buffy coat was aspirated into 5 mL of PBS and centrifuged at […] for 4 min to pellet the lymphocytes. The pellet was suspended in 1 mL of RPMI-1640 and cell density was adjusted to get 1 × 10^5 cells/mL. For cytotoxicity determination, 20 μL of samples (20 μg/mL) or vincristine or 1% DMSO in PBS and 180 μL of lymphocyte suspension were incubated in 96-well plate at 37 °C for 24 h in humidified 5% carbon dioxide incubator (Panasonic, Japan MCO-18 AC-PE). Phytohaemagglutinin (PHA) was added in medium to stimulate lymphocyte growth. Afterwards, MTT assay was done as described above. IC50 values were determined using 3-fold dilutions of the samples."}, "Streptomyces 85E": {"tested_on": "Streptomyces 85E", "experiment": "Protein kinase inhibition assay (Streptomyces disc assay)", "assay_type": "cell-based", "details": "for ZOI CZ (clear zone): (-) shows no ZOI; for ZOI BZ (bald zone): BZ indicative of PK inhibition; for MIC for PK inhibition: minimum inhibitory concentration", "protocol": "Protein kinase inhibitory activity of the tributyltin (IV) compounds was measured against Streptomyces 85E strain using previously described protocol. Culture of Streptomyces 85E was refreshed in tryptic soy broth and 100 μL of this was swabbed on sterile ISP4 medium under aseptic conditions. […] Diameter (mm) of zone of inhibition (ZOI) around all samples and controls was measured as clear zone (CZ) and bald zone (BZ). […] BZ is indicative of PK inhibition."}, "[4]": {"tested_on": "cellular metacyclic promastigotes", "parameters": "method as in PMID 19546361", "details": "cited from earlier work"}, "[5]": {"tested_on": "axenic log-phase promastigotes", "parameters": "method as in PMID 19546361", "details": "cited from earlier work"}, "HepG2 cell line": {"tested_on": "HepG2 cell line", "experiment": "Cytotoxicity against HepG2 cell line (SRB assay)", "assay_type": "cell-based, human", "details": "72 h", "protocol": "Cytotoxicity was further evaluated against HepG2 cell line by sulforhodamine B (SRB) colorimetric assay. Dulbecco's Modified Eagle Medium (DMEM) supplemented with 10% FBS, 100 μg/mL streptomycin sulfate, 100 IU/mL penicillin G sodium and 0.25 μg/mL amphotericin B was used to culture HepG2 cells in CO2 (5%) incubator (Panasonic, Japan MCO-18 AC-PE) at 37 °C. An aliquot of 20 μL (1% DMSO in PBS) of samples was added to 180 μL of cell culture at an assay density of 1x10^5 cells/mL in 96-well plate. The plate was incubated at 37 °C for 72 h in CO2 incubator. Final concentration of compounds/standard was 20 μg/mL. Doxorubicin and 1% v/v DMSO in PBS ere used as positive and negative controls respectively. An equivalent number of cells in twelve wells of 96-well plate were incubated for 1 h at 37 °C and labeled as day zero control. Later, cells were fixed by adding 50 μL of cold 20% w/v TCA for 1 h at 4 °C. These were washed with tap water, air dried and stained with 50 μL of 0.057% w/v SRB in 1% v/v acetic acid for 30 min at room temperature. Cells were again washed with 1% v/v acetic acid, dried overnight and 200 μL of 10 mM Tris base (pH 10) was used to solubilize the bound dye for 1 h. Absorbance was measured at 515 nm using a microplate reader. Percentage of growth inhibition was calculated as: % inhibition = 100 – [(As – Ao) / (An – Ao) × 100], where, Ao, As and An are absorbance of day zero control, samples and negative control respectively. IC50 values were determined using 3-fold dilutions of the samples."}}, "data": [{"smiles": "CCC[CH2][Sn]([CH2]CCC)([CH2]CCC)[O]C(=O)/C=C\\C(=O)NC1CCCCC1", "note": "[Ch-442, tributylstannyl (Z)-4-(cyclohexylamino)-4-oxobut-2-enoate]", "values": [{"measurement": "THP-1 % growth inhibition", "setting": "THP-1 cell line", "value": "44.6 ± 1.18", "unit": "%"}, {"measurement": "Antileishmanial % growth inhibition (mortality, lethality)", "setting": "[1]", "value": "95.8 ± 2.16", "unit": "%"}, {"measurement": "Antileishmanial LC50", "setting": "[1]", "value": "0.088 ± 0.009", "unit": "mg/L"}, {"measurement": "Photosensitizing effect % growth inhibition, Control", "setting": "[2]; 0.092 μg/mL", "value": "46.1 ± 0.56", "unit": "%"}, {"measurement": "Photosensitizing effect % growth inhibition, Dark", "setting": "[2]; 0.092 μg/mL", "value": "44.18 ± 1.16", "unit": "%"}, {"measurement": "Photosensitizing effect % growth inhibition, Sunlight with IR filter", "setting": "[2]; 0.092 μg/mL", "value": "49.25 ± 0.63", "unit": "%"}, {"measurement": "Photosensitizing effect % growth inhibition, Sunlight", "setting": "[2]; 0.092 μg/mL", "value": "40.5 ± 0.12", "unit": "%"}, {"measurement": "Reduction of antileishmanial activity in the presence of NaN3", "setting": "[3]", "value": 22, "unit": "%"}, {"measurement": "Reduction of antileishmanial activity in the presence of mannitol", "setting": "[3]", "value": 38.2, "unit": "%"}, {"measurement": "Isolated lymphocytes IC50", "setting": "isolated lymphocytes", "value": "14.9 ± 0.25", "unit": "mg/L"}, {"measurement": "ZOI CZ (clear zone)", "setting": "Streptomyces 85E; 6.25 μg/disc", "value": "10 ± 0.74", "unit": "mm"}, {"measurement": "ZOI BZ (bald zone)", "setting": "Streptomyces 85E; 6.25 μg/disc", "value": "29 ± 0.78", "unit": "mm"}, {"measurement": "ZOI CZ (clear zone)", "setting": "Streptomyces 85E; 50 μg/disc", "value": "40 ± 1.17", "unit": "mm"}, {"measurement": "MIC for PK inhibition", "setting": "Streptomyces 85E", "value": "0.391 ± 0.006", "unit": "μg/disc"}]}, {"smiles": "C[C@@H]1[C@H](O)[C@@H](C)/C=C/C=C/C=C/C=C/C=C/C=C/C=C/[C@H](O[C@@H]2O[C@H](C)[C@@H](O)[C@H](N)[C@@H]2O)C[C@@H]2O[C@](O)(C[C@@H](O)C[C@@H](O)[C@H](O)CC[C@@H](O)C[C@@H](O)CC(=O)O[C@H]1C)C[C@H](O)[C@H]2C(=O)O", "note": "[Amphotericin B, reference compound]", "values": [{"measurement": "mortality at 20 µg/mL", "setting": "[1]; Leishmania tropica, read-out: Antileishmanial % growth inhibition (mortality, lethality)", "value": 100, "unit": "%"}, {"measurement": "Reduction of antileishmanial activity in the presence of NaN3", "setting": "[3]", "value": 16, "unit": "%"}, {"measurement": "Reduction of antileishmanial activity in the presence of mannitol", "setting": "[3]", "value": 10, "unit": "%"}]}, {"smiles": "O.O.O.O.O.O.O.O.O.O=C([O-])[C@@H]1[O][Sb](=[O])([O][Sb]2(=[O])[O][C@H]([C@H](O)CO)[C@H](O)[C@H](C(=O)[O-])[O]2)[O][C@H]([C@H](O)CO)[C@@H]1O.[Na+].[Na+].[Na+]", "note": "(some centres unmarked) [sodium stibogluconate]", "values": [{"measurement": "IC50", "setting": "[4]", "value": 22, "unit": "mg/L"}, {"measurement": "IC50", "setting": "[5]", "value": 64, "unit": "mg/L"}]}, {"smiles": "CCC[CH2][Sn]([CH2]CCC)([CH2]CCC)[O]C(=O)CCC(=O)Nc1ccc(C(=O)[O][Sn]([CH2]CCC)([CH2]CCC)[CH2]CCC)cc1", "note": "[Ch-448, tributylstannyl 4-(4-oxo-4-((tributylstannyl)oxy)butanamido)benzoate]", "values": [{"measurement": "THP-1 % growth inhibition", "setting": "THP-1 cell line", "value": "43.1 ± 2.29", "unit": "%"}, {"measurement": "Antileishmanial % growth inhibition (mortality, lethality)", "setting": "[1]", "value": "96.5 ± 2.67", "unit": "%"}, {"measurement": "Antileishmanial LC50", "setting": "[1]", "value": "0.576 ± 0.088", "unit": "mg/L"}, {"measurement": "Photosensitizing effect % growth inhibition, Control", "setting": "[2]; 0.55 μg/mL", "value": "54.65 ± 2.75", "unit": "%"}, {"measurement": "Photosensitizing effect % growth inhibition, Dark", "setting": "[2]; 0.55 μg/mL", "value": "50.16 ± 1.19", "unit": "%"}, {"measurement": "Photosensitizing effect % growth inhibition, Sunlight with IR filter", "setting": "[2]; 0.55 μg/mL", "value": "52.9 ± 1.17", "unit": "%"}, {"measurement": "Photosensitizing effect % growth inhibition, Sunlight", "setting": "[2]; 0.55 μg/mL", "value": "49.7 ± 0.89", "unit": "%"}, {"measurement": "Isolated lymphocytes % growth inhibition", "setting": "isolated lymphocytes; 20 μg/mL", "value": "23.6 ± 1.07ǂ %"}, {"measurement": "ZOI BZ (bald zone)", "setting": "Streptomyces 85E; 6.25 μg/disc", "value": "25 ± 1.75", "unit": "mm"}, {"measurement": "ZOI CZ (clear zone)", "setting": "Streptomyces 85E; 50 μg/disc", "value": "31 ± 1.05", "unit": "mm"}, {"measurement": "MIC for PK inhibition", "setting": "Streptomyces 85E", "value": "0.781 ± 0.002", "unit": "μg/disc"}, {"measurement": "HepG2 % growth inhibition", "setting": "HepG2 cell line; 20 μg/mL", "value": "97.1 ± 2.34", "unit": "%"}, {"measurement": "HepG2 IC50", "setting": "HepG2 cell line; 3-fold dilutions", "value": "3.45 ± 0.63", "unit": "mg/L"}]}]}
